From patent US7271130B2 (priority 2002, dated 2007)

Tested on: Erysiphe graminis f.sp. hordei
Assay type: in vivo
Details: 200 ppm

Which “control of fungal infection” value does the source give for `CC#CC(C)(C)NC(=O)C(COC)Oc1cc(Cl)cc(Cl)c1` (stereo not shown) [4(1), 2-(3,5-dichlorophenoxy)-3-methoxy-N-(4-methylpent-2-yn-4-yl)propionamide] here?
Its value is “at least 70%”.
